Experiments:
Assay type in all cases: in vivo, rat
[1] = test system: Fisher to Lewis renal allograft; assay: Fisher to Lewis renal allograft model of chronic allograft nephropathy (graft survival, serum creatinine, urinary protein, histology)
Experimental: Animals: Donor and recipients rats (greater than 250 gm) were obtained from Harlan Sprague Dawley, Indianapois, Ind. Recipient animals were placed on experimental diet containing 0.47% Ca 7 days prior to transplantation. Hullett et al., Transplantation 66:824-828, 1998. Recipients were divided into groups which received experimental diet alone or experimental diet containing 1,25-(OH)2D3 (250, 500, or 1000 ng/rat/day) or cyclosporine 1.5 or 5 mg/kg/day i.p. for 10 days. Animals were maintained on diet until the time or rejection or graft harvest at 24 weeks. All care and use of laboratory animals followed the NIH (NIH publication No. 86-23) guidelines. 1,25-(OH)2D3 was prepared, dissolved in ethanol and placed in the experimental diet as previously described.1,25-(OH)2D3 was the generous gift or Dr. Hector DeLuca, Department of Biochemistry, University of Wisconsin. Cyclosporine (Sandimmune i.v.; 1.5 or 5 mg/kg/day for 10 days,) was diluted in saline and given i.p. Transplantation: The Fisher to Lewis model of chronic allograft nephropathy has been previously described. Diamond et al., Transplantation 54:710-716, 1992. Briefly, donor kidneys obtained from male Fisher 344 rats were flushed with 10 ml cold University of Wisconsin preservation solution and stored at 4° C. while the recipient was prepared. […] Lewis male recipients were transplanted with either a Fisher 344 or Lewis kidney following left native nephrectomy. Briefly, the donor renal artery, vein and ureter were anastomosed to the recipient renal artery, vein and ureter. The right native kidney was removed 10 days post-transplant. Graft function was monitored by serum creatinine and urinary protein determinations. Urinary Protein: Proteinuria was assessed weekly. Animals were placed in metabolic cages for 6 hours and urine collected. Protein excretion was determined using a dye binding assay (quanTest red, Quantimetrix Corp., Redondo Beach, Calif.) according to manufacturer=s instructions with minor modifications. Briefly, 20 μl of the urine sample was diluted with 1×PBS in a two-fold series dilution in 96-well flat-bottom microtiter plates (Corning, N.Y.). […] Data was analyzed with Softmax Pro-software (Molecular Devices Corp.; Sunnyvale, Calif.). Graft survival was compared using the log rank test. Differences in mRNA and protein expression were compared by t-test.

Smad 7 protein = assay: Western blot of renal graft lysates, Smad 7 protein; conditions: allogeneic grafts vs untreated allogeneic grafts (FIG. 4B)
Description: Renal lysates were subjected to SDS-PAGE and transferred to nitrocellulose membranes. The membranes were probed with specific anti-Smad antibodies and appropriated HRP-conjugated secondary antibodies. Signal was detected with chemilumensnce. Following exposure, x-ray films were scanned and the amount of expression compared to that of tubulin as an internal control using Scion Image software. FIG. 4 (A) describes R-Smad expression. FIG. 4 (B) described I-Smad expression.
Western Blot Analysis: A portion of the snap frozen graft containing both cortex and medulla was ground with a mortar and pestle. For each 100 mg of tissue, the sample was resuspened in 400 ul of lysis buffer (10 mM Tris base, 150 mM NaCl, pH 8.0) containing protease inhibitors (P2714 1:1000. Sigma Chemical Co., St. Louis, Mo.) and homogenized (PowerGen 125, 1 minute). Triton X100 was then added to 1% and the sample place on ice, for 30 minutes. The solubilized sample was then spun at 4° C. for 15 minutes at 15,000×G. The supernatant was collected and stored at −80° C. Sample protein concentrations were determined using the Micro BCA assay (Pierce Chemical Co., Rockford, Ill.) according to manufacturer=s instructions, except that the assay was performed in half area plates combining 35 μl sample with 70 µl of reagent. […]

MMP 2 mRNA = assay: Semi-quantitative RT-PCR of renal grafts, MMP 2 mRNA
Experimental: FIG. 5 is a set of graphs showing that 1,25-(OH)2D3 Treatment Alters MMP and TIMP Expression . […] S26 was used as the housekeeping gene. […] Fold changes are expressed relative to the allogeneic untreated control.
Semi-quantitative Reverse transcription polymerace chain reaction (RT-PCR): Following graft harvest a […] containing both cortex and medulla was snap frozen in liquid nitrogen. Semi-quantitative RT-PCR was performed as described. Little et al. Transplant Int. 12:393-401, 1999. Briefly, samples were homogenized then total RNA extracted with RNAzol B (Tel Test, Inc., Friendswood, Tex.) and reversed transcribed to cDNA according to manufacturer=s instructions (Superscript, Gibco BRL). PCR was performed over the linear range of amplification for both the gene of interest, e.g. TGFβ-1, and the ribosomal protein S26 as a control housekeeping gene. PCR conditions were chosen such that both products were amplified with similar efficiency. The following cycle parameters were employed: denaturing, 94° C. for 60 seconds; annealing, 61° C. for 60 seconds; and extension, 72° C. for 60 seconds. The amount of product was quantified using a phosphoimager (Storm 80) following gel electrophoresis and Vista green detection.

[2] = allograft, 500 ng/rat/day, FIG. 2B

C=C1/C(=C\C=C2/CCC[C@]3(C)[C@@H]([C@H](C)CCCC(C)(C)O)CC[C@@H]23)C[C@@H](O)C[C@@H]1O [calcitriol, 1,25-dihydroxyvitamin D3]
Graft survival ([1]; 250 ng/day in diet, p=0.04): prolonged graft survival was not as readily demonstrated | Graft survival ([1]; 500 ng/rat/day in diet, vs allogeneic untreated controls, p=0.0009): significant prolongation of graft survival was sustained | Urinary protein ([1]; 500 ng/rat/day monotherapy (data not shown), vs untreated allogeneic controls or CSA 1.5 mg/kg/d): significantly lowered | Calcium deposits in graft ([1]; 1000 ng): Significant calcium deposits | Graft survival ([1]; 1000 ng/rat/day in diet, monotherapy, vs allogeneic untreated controls, p=0.0031): significantly prolonged | Urinary protein ([1]; 1000 ng/rat/day monotherapy, p=0.004, vs untreated allogeneic controls or CSA 1.5 mg/kg/d (10 days)): significantly lowered | Calcium deposition, histological examination ([1]; 250 and 500 ng/day groups): reduced calcium deposition | Cellular infiltration, histological examination (Banff) ([1]; 250 and 500 ng/day groups): mild to moderate cellular infiltration (Banff IA or IIA) | Serum calcium levels ([1]; 250 and 500 ng/day groups (data not shown)): remained elevated | Rise in serum creatinine at 2 weeks post-transplant ([1]; 500 or 250 ng/day): Neither the 500 or the 250 ng/day dose of 1,25-(OH)2D3 prevented the rise | Prolonged graft survival compared with low dose CSA (5 mg/kg/day for 10 days) ([1]; 1000 or 500 ng/rat/day): not statistically different | Early acute rejection episode (within 2 weeks post-transplant) ([1]; CSA: short-term low dose monotherapy, 1,25-(OH)2D3 in diet): diminished | Cellular infiltration (H&E) [1, 2]: significantly decreased | Interstitial fibrosis (H&E) [1, 2]: little or no interstitial fibrosis | Histological features of CAN (interstitial fibrosis, glomerulosclerosis, neointimal hyperplasia) ([1]; allografts, H&E, FIG. 2B): inhibited the development of these pathological features | Serum creatinine at 2 weeks post-transplant ([1]; p=0.035 versus untreated allogeneic control (FIG. 1B)): only a slight increase | Collagen deposition (trichrome stain) ([1]; treated allograft recipients, FIG. 2D-E): decreased collagen deposition | Increase in Smad 7 protein levels (Smad 7 protein): 4,3 fold | Increase in MMP 2 mRNA levels (MMP 2 mRNA; allogeneic grafts (FIG. 5A)): 5.6 fold | Increase in MMP 2 mRNA levels (MMP 2 mRNA; syngeneic grafts (FIG. 5A)): 4.0 fold
